Measurements as given in patent US20250084092A1, “ANNULATED PYRIDAZINE COMPOUND” (Nico Therapeutics, Inc., priority 2021, published 2025).
Structures can show the parent of a compound that is named as a salt.

What follows are molecules tested against T1, NLRP3 inflammasome (Homo sapiens, UniProt Q96P20) (assay: THP-1 IL-1β production inhibition test). Settings: PMA-treated THP-1 cells, LPS 50 ng/mL + ATP 5 mM, 2 hours, IL-1β in supernatant by ELISA.
T1 construct: endogenous in cells; host or cells: THP-1 cells (PMA-differentiated, stimulated with LPS and ATP)
T1 sequence (Q96P20 whole entry): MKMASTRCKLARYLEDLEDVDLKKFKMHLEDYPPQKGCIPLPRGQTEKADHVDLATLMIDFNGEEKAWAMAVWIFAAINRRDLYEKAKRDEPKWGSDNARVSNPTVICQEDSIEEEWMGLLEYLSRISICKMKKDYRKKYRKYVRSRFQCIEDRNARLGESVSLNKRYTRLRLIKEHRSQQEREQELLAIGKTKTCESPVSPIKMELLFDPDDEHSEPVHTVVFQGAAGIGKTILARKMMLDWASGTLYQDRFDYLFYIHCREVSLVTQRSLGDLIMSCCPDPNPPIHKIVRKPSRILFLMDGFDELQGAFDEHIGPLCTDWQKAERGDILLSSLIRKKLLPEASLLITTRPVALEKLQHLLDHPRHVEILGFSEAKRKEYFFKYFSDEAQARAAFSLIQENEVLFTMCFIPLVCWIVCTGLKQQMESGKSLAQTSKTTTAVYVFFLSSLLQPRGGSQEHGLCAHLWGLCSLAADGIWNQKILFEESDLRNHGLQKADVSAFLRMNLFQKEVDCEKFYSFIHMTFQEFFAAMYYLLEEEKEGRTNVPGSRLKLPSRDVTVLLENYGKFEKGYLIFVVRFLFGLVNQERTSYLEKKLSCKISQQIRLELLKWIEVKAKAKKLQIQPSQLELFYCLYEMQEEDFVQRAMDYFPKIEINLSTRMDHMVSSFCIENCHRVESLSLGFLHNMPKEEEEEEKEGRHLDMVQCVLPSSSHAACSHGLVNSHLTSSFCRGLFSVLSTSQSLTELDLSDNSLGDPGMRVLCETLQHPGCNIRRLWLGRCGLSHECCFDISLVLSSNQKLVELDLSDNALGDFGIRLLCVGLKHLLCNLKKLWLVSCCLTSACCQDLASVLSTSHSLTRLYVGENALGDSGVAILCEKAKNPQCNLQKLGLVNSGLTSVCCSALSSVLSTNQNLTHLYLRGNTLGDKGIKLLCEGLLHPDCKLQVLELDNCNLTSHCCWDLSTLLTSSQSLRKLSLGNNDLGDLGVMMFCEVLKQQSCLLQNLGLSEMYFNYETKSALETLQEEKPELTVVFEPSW
Type: cell-based
Procedure: PMA (phorbol myristate acetate, SIGMA, P1585) was added to THP-1 cells in an amount of 50 ng/mL to culture the cells for 2 days at 37° C. […] LPS (Lipopolysaccharide, SIMGA, L2880) and ATP (Adenosine triphosphate, SIGMA, A2383) were added so that final concentrations become 50 ng/mL and 5 mM, respectively, followed by culturing at 37° C. for 2 hours. The supernatants were collected to measure the concentrations of IL-1β by ELISA (DuoSet ELISA human IL-1β, R&D Systems, DY201). The IL-1β concentrations were plotted against log concentrations of test compounds, and an IC50 value was calculated by sigmoid Emax model nonlinear regression analysis.

Row | IC50 [nM] | SMILES
1 | 1.3 | CN1CCC[C@@H](Nc2nnc(-c3ccc(C4CC4)cc3O)c3c2COCC3)C1 [Example 112, 5-cyclopropyl-2-(4-{[(3R)-1-methylpiperidin-3-yl]amino}-7,8-dihydro-5H-pyrano[3,4-d]pyridazin-1-yl)phenol]
2 | 3.4 | Oc1cc(C(F)(F)F)ccc1-c1nnc(N[C@@H]2CCCN(C3COC3)C2)c2c1CCCC2 [Example 97, 2-(4-{[(3R)-1-(oxetan-3-yl)piperidin-3-yl]amino}-5,6,7,8-tetrahydrophthalazin-1-yl)-5-(trifluoromethyl)phenol]
3 | 130 | CC(=O)N1Cc2c(N[C@@H]3CCCC[C@H]3O)nnc(-c3ccc(C(F)(F)F)cc3O)c2C1 [Example 117, 1-(1-{[(1R,2R)-2-hydroxycyclohexyl]amino}-4-[2-hydroxy-4-(trifluoromethyl)phenyl]-5,7-dihydro-6H-pyrrolo[3,4-d]pyridazin-6-yl)ethan-1-one]
4 | 95 | CC1(C)SCc2c(N[C@@H]3CCCN(CC(F)F)C3)nnc(-c3ccc(C(F)(F)F)cc3O)c21 [Example 132, 2-(4-{[(3R)-1-(2,2-difluoroethyl)piperidin-3-yl]amino}-7,7-dimethyl-5,7-dihydrothieno[3,4-d]pyridazin-1-yl)-5-(trifluoromethyl)phenol]
5 | 6.6 | COc1ccc(-c2nnc(N[C@@H]3CCCC[C@H]3O)c3c2CCOC3)c(O)c1 [Example 69]
6 | 81 | CC(C)(O)CNc1nnc(-c2ccc(C(F)(F)F)cc2O)c2c1CCC2 [Example 21]
7 | 36 | C[C@]1(O)C[C@@H](Nc2nnc(-c3ccc(C(F)(F)F)cc3O)c3c2CCOC3)C1 [56(2)]
8 | 16 | COc1ccc(-c2nnc(N[C@@H]3CCCC[C@H]3O)c3c2CCCCC3)c(O)c1 [Example 47]
9 | 5.6 | Oc1cc(OC(F)(F)F)ccc1-c1nnc(N[C@@H]2CCCC[C@@H]2O)c2c1CCOC2 [Example 127, 2-(4-{[(1R,2S)-2-hydroxycyclohexyl]amino}-7,8-dihydro-5H-pyrano[3,4-d]pyridazin-1-yl)-5-(trifluoromethoxy)phenol]
10 | 1400 | C[C@@H](O)CNc1nnc(-c2ccc(C(F)(F)F)cc2C(F)(F)F)c2c1CN(C)CC2 [Example 74]
11 | 15 | Cc1ccc(-c2nnc(N[C@@H]3CCCC[C@H]3O)c3c2CCCC3)c(O)c1 [Example 26]
12 | 18 | Oc1cc(C(F)F)ccc1-c1nnc(N[C@@H]2CCCC[C@H]2O)c2c1CCCC2 [Example 84]
13 | 3.3 | CN1CCC[C@@H](Nc2nnc(-c3ccc(OC(F)(F)F)cc3O)c3c2COCC3)C1 [Example 128, 2-(4-{[(3R)-1-methylpiperidin-3-yl]amino}-7,8-dihydro-5H-pyrano[3,4-d]pyridazin-1-yl)-5-(trifluoromethoxy)phenol]
14 | 15 | OCC1(CNc2nnc(-c3ccc(C(F)(F)F)cc3O)c3ccccc23)CC1 [Example 13]
15 | 3 | O=S1(=O)Cc2c(N[C@@H]3CCCC[C@H]3O)nnc(-c3ccc(C(F)(F)F)cc3O)c2C1 [131(1)]
16 | 2 | Oc1cc(C(F)(F)F)ccc1-c1nnc(N[C@@H]2CCOC[C@H]2O)c2c1CCOC2 [101(1)]
17 | 2.9 | Oc1cc(OC(F)(F)F)ccc1-c1nnc(N[C@@H]2CCCC[C@H]2O)c2c1CCOC2 [Example 135, 2-(4-{[(1R,2R)-2-hydroxycyclohexyl]amino}-7,8-dihydro-5H-pyrano[3,4-d]pyridazin-1-yl)-5-(trifluoromethoxy)phenol monohydrochloride]
18 | 54 | CN1CCc2c(N[C@@H]3CCCC[C@H]3O)nnc(-c3ccc(C(F)(F)F)cc3O)c2C1 [Example 75]
19 | 11 | Oc1cc(C(F)(F)F)c(F)cc1-c1nnc(N[C@@H]2CCCC[C@H]2O)c2c1CCOC2 [Example 86]
20 | 22 | C[C@]1(O)C[C@@H](Nc2nnc(-c3ccc(Cl)cc3O)c3c2CCCC3)C1 [Example 30]
21 | 8.6 | Oc1cc(C(F)(F)F)ccc1-c1nnc(N[C@@H]2CCOC[C@H]2O)c2c1COCC2 [101(2)]
22 | 20 | C[C@@H](O)CNc1nnc(-c2ccc(C(F)(F)F)cc2O)c2c1CCCC2 [Example 17]
